Source: patent publication US10532066B2, “Surfactant lipids, compositions thereof, and uses thereof” (National Jewish Health, priority 2007, dated 2020)
Entries after “also recorded” stand apart in the source; their conditions may differ.

Assays:
U937 macrophages = test: TNFα in U937 macrophages stimulated with smooth LPS, with SP-A and PtdGro; format: cell-based; conditions: 100 ng/ml smooth LPS, 6 hours, SP-A 10 μg/ml, lipid 20 μg/ml
Method: U937 macrophages were stimulated with 100 ng/ml smooth LPS for 6 hours. The culture medium was harvested and assayed for the presence of TNFα by ELISA. Control cultures received no additions. SP-A was added as indicated at 10 μg/ml. Saturated-(16:0/16:0)-PtdGro was added at 20 μg/ml. Unsaturated-(18:1/18:1)-PtdGro was added at 20 μg/ml.

PstB2 = target: T1, PstB2 (Saccharomyces cerevisiae, UniProt P53844); test: PstB2 control protein binding to solid phase POPG; parameters: species or system yeast; conditions: PstB2 1 μg/ml
T1 construct: made in house; host or cells: baculovirus-insect cell expression system
Source text: FIG. 16. MD-2 preferentially binds POPG.

MD-2 binding to sTLR4 = target: T2, MD-2 binding to sTLR4 (Homo sapiens, UniProt Q9Y6Y9); test: Phospholipid competition for MD-2-sTLR4 binding
T2 construct: made in house; host or cells: baculovirus-insect cell expression system
Method: CD14 (2 μg) or sTLR4 (100 ng) in aliquots of 20 μl of buffer B were pipeted onto a 96-well plate, and the solvent evaporated using a warm air dryer. […] The amount of bound LBP or MD-2 was detected using specific antibodies.

TLR1 = target: T3, TLR1 (Mus musculus, UniProt Q9EPQ1); test: TLR agonist TNFα production in RAW 264.7 cells, TLR1; format: cell-based; conditions: Pam3Cys, 24 h
T3 construct: endogenous in cells; host or cells: RAW 264.7
Method: (§1) In this experiment, multiple TLRs were stimulated with defined TLR agonists for 24 h and the TNFα production was measured. In each case, the maximal stimulation by agonist is set at 100% and the antagonism by POPG is expressed as the relative % response. The Controls consist of no treatment, or treatment with POPG in the absence of agonist as indicated. The agonists for the TLRs consist of Pam3Cys for TLR1/2, Mycoplasma pneumoniae membranes as an agonist for TLR2, mycoplasma derived MALP2 as an agonist for TLR 2/6, double stranded RNA (poly IC) for TLR3, Gram-negative lipopolysaccharide for TLR4, and CpG rich DNA as an agonist for TLR9. The TLR4 panel also contains the antagonist polymyxin B (PB) for comparison with POPG.

TLR2 = target: T4, TLR2 (Mus musculus, UniProt Q9QUN7); test: TLR agonist TNFα production in RAW 264.7 cells, TLR2; format: cell-based; conditions: Mycoplasma pneumoniae membranes, 24 h
T4 construct: endogenous in cells; host or cells: RAW 264.7
Method: as §1

TLR4 = test: TLR agonist TNFα production in RAW 264.7 cells, TLR4; format: cell-based; conditions: lipopolysaccharide, 24 h
Method: as §1

multiple TLRs = test: Activation of RAW 264.7 macrophages by multiple TLRs (TNFα, Example 8); format: cell-based; conditions: 200 ug/ml POPG, 5 hours
[1] = tested on: Respiratory Syncytial Virus (RSV); test: RSV-induced cytokine production in BEAS2B cells; format: cell-based
[2] = tested on: Respiratory Syncytial Virus (RSV); test: RSV-induced cytokine production in NHBE cells; format: cell-based
[3] = tested on: Respiratory Syncytial Virus (RSV); test: Cytopathic effects of RSV upon NHBE cells (photomicrography); format: cell-based
Method: Monolayers of NHBE cells were infected with RSV at a multiplicity of 3 for 72 h. Infections were performed on cells in either the absence or the presence of POPG (200 ug/ml). The cell monolayers were photographed at a magnification of 200×. Controls consisted of no viral challenge in either the presence or absence of POPG as indicated.
Monolayers of NHBE cells were infected with RSV at a multiplicity of 3 for 72 h. Infections were performed on cells in either the absence (b) or the presence (c,f) of POPG (200 ug/ml) and POPC (200 ug/ml) as indicated. Cells were photographed at a magnification of 200×. Controls (a,d,e) consisted of cell layers either not exposed to virus or exposed to POPG, and POPC in the absence of virus as indicated.
Monolayers of normal human bronchial epithelial cells were infected with RSV at a multiplicity of 0.5-1, in either the presence or absence of 200 ug/ml POPG, or 200 ug/ml POPC, as indicated.

RSV [4] = test: RSV plaque progression in Hep2 monolayers, lipid in agar overlay; format: cell-based, Respiratory Syncytial Virus (RSV); conditions: lipid in agar overlay 5 hours after virus, POPG 200-500 ug/ml, POPC 500 ug/ml, 5 days
Method: Monolayers of Hep2 cells were subjected to RSV infection at levels that produce ca 100 plaques per well in quantitative plaque assays. The virus was incubated with the cells for 5 hours prior to agar overlay. The agar overlays contained either no additions, or POPG (200-500 ug/ml) or POPC (500 ug/ml).
The effects of POPG upon plaque formation as shown in Panel a of FIG. 39 were quantified in 3 independent experiments and are presented in this figure. The left panel of FIG. 40 provides the numbers of definite, and minute indefinite plaques formed in the absence and presence of POPG (200-500 ug/ml) as indicated. The right panel of FIG. 40 provides the numbers of definite plaques observed in the absence and presence of either POPG or POPC (200-500 ug/ml) as indicated.

RSV [5] = test: RSV infection of mice; format: in vivo; conditions: 10^7 RSV with 200 ug/ml POPG, three days
Method: Groups of 8 mice were inoculated with 10^7 RSV in either the absence (RSV), or presence of 200 ug/ml POPG (RSV+POPG). Control experiments consisted of UV inactivated RSV (URV), or saline treatment (CON), or POPG treatment without virus (POPG). Three days after the inoculations, the animals were killed and the lungs harvested and processed for viral content by quantitative plaque assay (left panel of FIG. 41), and histopathology (right panel of FIG. 41)

sTLR4 = sTLR4 (Homo sapiens, UniProt O00206); test: sTLR4 binding to solid phase POPG; conditions: sTLR4 1 μg/ml
Method: (A) POPG (1.25 nmole) was placed onto microtiter wells and the solvent evaporated. After blocking nonspecific binding with buffer A, MD-2, sTLR4 and PstB2 (1 μg/ml) in buffer A were added and incubated at 37° C. for 1 h. The binding of recombinant proteins to POPG was detected using anti-His antibody. […] The data shown are the means±S.E. from three separate experiments each with duplicate determinations.

[6] = RSV multiplicity 0.5-1, 48 h, 200 ug/ml
[7] = RSV multiplicity 3, 48 h, lipid 200 ug/ml

T2 sequence (Q9Y6Y9 19-160): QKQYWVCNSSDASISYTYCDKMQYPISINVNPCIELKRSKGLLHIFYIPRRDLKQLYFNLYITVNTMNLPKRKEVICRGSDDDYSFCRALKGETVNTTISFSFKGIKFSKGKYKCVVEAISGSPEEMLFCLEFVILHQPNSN
Chain of sTLR4 (O00206 24-631): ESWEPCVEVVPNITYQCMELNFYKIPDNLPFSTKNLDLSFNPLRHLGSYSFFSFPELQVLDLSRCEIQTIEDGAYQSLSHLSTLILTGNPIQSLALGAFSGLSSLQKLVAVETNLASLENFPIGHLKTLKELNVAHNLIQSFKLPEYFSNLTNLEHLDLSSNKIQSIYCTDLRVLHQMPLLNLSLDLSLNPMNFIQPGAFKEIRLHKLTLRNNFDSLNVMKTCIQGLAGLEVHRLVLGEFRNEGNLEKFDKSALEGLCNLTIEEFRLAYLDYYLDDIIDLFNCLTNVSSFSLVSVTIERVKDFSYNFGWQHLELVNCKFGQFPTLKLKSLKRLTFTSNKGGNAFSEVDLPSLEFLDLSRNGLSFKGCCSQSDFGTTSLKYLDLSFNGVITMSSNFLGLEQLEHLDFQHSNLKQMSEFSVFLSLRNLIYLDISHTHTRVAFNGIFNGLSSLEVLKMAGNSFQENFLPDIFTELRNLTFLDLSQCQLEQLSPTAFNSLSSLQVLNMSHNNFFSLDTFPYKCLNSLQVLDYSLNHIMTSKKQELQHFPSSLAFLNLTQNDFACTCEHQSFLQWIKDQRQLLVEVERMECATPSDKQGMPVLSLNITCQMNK
T3 sequence (Q9EPQ1 26-795): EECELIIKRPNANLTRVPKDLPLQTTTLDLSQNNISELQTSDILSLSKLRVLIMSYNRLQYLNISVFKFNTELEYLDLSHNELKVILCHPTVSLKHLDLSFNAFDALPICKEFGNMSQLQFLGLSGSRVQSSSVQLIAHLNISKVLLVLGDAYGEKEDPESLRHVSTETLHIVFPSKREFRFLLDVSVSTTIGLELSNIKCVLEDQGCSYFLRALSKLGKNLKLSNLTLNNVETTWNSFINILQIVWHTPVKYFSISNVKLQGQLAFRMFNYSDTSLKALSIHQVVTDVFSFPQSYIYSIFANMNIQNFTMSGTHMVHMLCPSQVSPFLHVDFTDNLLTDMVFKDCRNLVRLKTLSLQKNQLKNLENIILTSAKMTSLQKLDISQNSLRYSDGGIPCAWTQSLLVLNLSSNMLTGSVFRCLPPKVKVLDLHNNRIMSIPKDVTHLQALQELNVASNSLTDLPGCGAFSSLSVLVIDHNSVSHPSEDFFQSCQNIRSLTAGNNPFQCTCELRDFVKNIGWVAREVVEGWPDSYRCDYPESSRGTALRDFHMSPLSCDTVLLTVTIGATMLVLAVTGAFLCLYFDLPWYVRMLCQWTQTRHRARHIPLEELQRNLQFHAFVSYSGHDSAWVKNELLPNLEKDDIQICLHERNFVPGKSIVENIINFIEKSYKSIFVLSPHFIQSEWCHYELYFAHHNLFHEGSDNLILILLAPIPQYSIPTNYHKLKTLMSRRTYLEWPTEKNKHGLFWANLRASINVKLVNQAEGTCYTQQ
T1 sequence (P53844 whole entry): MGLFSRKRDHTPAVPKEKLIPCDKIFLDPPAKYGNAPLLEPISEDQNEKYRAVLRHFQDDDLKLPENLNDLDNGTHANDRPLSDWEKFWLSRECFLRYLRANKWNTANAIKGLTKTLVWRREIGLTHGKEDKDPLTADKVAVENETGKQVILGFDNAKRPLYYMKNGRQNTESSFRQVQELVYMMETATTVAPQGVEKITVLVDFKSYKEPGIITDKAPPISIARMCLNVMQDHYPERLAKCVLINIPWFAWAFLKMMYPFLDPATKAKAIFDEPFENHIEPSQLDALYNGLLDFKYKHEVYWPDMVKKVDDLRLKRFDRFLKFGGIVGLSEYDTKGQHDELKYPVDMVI
T4 sequence (Q9QUN7 25-784): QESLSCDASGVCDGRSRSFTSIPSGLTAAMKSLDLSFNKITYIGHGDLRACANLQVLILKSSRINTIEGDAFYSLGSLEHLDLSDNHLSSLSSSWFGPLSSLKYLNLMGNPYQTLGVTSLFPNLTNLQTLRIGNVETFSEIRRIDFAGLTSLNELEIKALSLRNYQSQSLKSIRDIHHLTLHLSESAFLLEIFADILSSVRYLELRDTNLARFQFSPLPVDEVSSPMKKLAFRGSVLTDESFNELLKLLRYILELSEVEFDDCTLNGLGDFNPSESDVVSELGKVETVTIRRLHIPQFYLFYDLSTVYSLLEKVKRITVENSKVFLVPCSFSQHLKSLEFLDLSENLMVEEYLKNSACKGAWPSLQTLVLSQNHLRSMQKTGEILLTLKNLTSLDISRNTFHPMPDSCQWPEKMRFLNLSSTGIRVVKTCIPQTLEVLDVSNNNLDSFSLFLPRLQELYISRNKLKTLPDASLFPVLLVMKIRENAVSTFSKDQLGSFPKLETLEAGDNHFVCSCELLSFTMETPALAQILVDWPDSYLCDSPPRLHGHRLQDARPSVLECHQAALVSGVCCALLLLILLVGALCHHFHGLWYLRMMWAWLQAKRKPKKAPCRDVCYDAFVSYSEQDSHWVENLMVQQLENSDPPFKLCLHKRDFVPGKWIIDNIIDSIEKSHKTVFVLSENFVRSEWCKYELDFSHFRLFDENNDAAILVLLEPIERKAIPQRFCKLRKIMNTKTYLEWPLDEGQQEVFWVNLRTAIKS

`CCCCCCCCCCCCCCCC(=O)OCC(COP(=O)(O)OCC(O)CO)OC(=O)CCCCCCCCCCCCCCC` (centres unmarked) [DPPG, dipalmitoyl-phosphatidylglycerol, reference compound] was tested, and the “blocking of the anti-inflammatory effects of SP-A (TNFα)” value (U937 macrophages) was “does not block”.

With `CCCCCCCC/C=C\CCCCCCCC(=O)O[C@H](COC(=O)CCCCCCCCCCCCCCC)COP(=O)(O)OCC(O)CO` (some centres unmarked) [POPG, palmitoyl-oleoyl-phosphatidylglycerol] the “binding to PstB2” value (PstB2) was “not”, the “inhibition of the MD-2/TLR4 interaction” value (MD-2 binding to sTLR4; lipid competitor up to 200 μg/ml) was “approximately 75%” and the “inhibition of the MD-2/TLR4 interaction” value (MD-2 binding to sTLR4; low levels of lipid competitor (20 μg/ml)) was 40%. For the same molecule, the “activity of TLR1 (TNFα production)” value (TLR1) was “inhibits”, the “activity of TLR2 (TNFα production)” value (TLR2) was “inhibits” and the “activity of TLR4 (TNFα production)” value (TLR4) was “inhibits”. For the same molecule, the “activation of RAW 264.7 macrophages by multiple TLRs (TNFα)” value (multiple TLRs) was “inhibits activation”, the “IL-8 production, varying concentrations of POPG” value ([1]; RSV multiplicity 0.5, 48 hours) was “inhibits IL-8 production from epithelial cells in a concentration-dependent manner” and the “inflammatory cytokine production (IL-6, IL-8)” value [1, 6] was “suppresses”. The IL-6 production [1, 7] was “inhibits”, the IL-8 production [1, 7] was “inhibits” and the “inflammatory cytokine production (IL-6, IL-8)” value [2, 6] was “suppresses”. The IL-6 production [2, 7] was “inhibits”, the IL-8 production [2, 7] was “inhibits” and the “killing of cells by RSV” value ([3]; multiplicity 0.5-1, 72 h, 200 ug/ml) was “prevents the killing”. For the same molecule, the “cytopathic effects of RSV” value ([3]; multiplicity 3, 72 h, lipid 200 ug/ml) was “prevents the cytopathic effects”, the “progression of RSV infection (plaques)” value (RSV [4]) was “arrests the progression; also recorded: indefinite minute plaques” and the “RSV infection in vivo (lung viral content, histopathology)” value (RSV [5]) was “suppresses”. For the same molecule, the “binding to sTLR4” value (sTLR4) was “not”.
